Data from US7915199B1, “Herbicidal composition” (Syngenta Crop Protection, Inc., priority 1999, dated 2011).

SMILES	melting point [°C]
CCc1cc(C)cc(C)c1-c1c(O)n2n(c1=O)CCOCC2	182 to 185
Cc1cc(C)c(-c2c(O)n3n(c2=O)CCOCC3)c(C(C)C)c1	214 to 216
Cc1cc(C)c(-c2c(OC(=O)C(C)(C)C)n3n(c2=O)CCOCC3)c(C(C)C)c1	148 to 151
COc1cc(C)cc(Br)c1-c1c(O)n2n(c1=O)CCOCC2	217 to 219
COc1cc(C)cc(Br)c1-c1c(OC(=O)C(C)(C)C)n2n(c1=O)CCOCC2	173 to 175

Second part, the compound after the results:

melting point [°C]	SMILES
110 to 113	CCc1cc(C)cc(C)c1-c1c(OC(=O)C(C)(C)C)n2n(c1=O)CCOCC2
114 to 116	CCOC(=O)Oc1c(-c2c(CC)cc(C)cc2CC)c(=O)n2n1CCOCC2
